We go through two compounds from patent US5985926A, “Method for inhibiting intracellular viral replication” (Cell Therapeutics, Inc., priority 1997, dated 1999).

For data set [1], the system named is HIV-1 in U1 cells (constitutive expression). The data set can be described thus: Constitutive HIV-1 p24 antigen expression in chronically infected U1 cells. It is filed as cell-based, HIV-1; human cells. To be noted: for suppression of constitutive HIV-1 expression (p24): U1 cells plated at high density, in words. The protocol:
(§1) Another assay examined the effect of compounds on chronically HIV-1 infected U1 cells. A relatively high density of U1 cells at 10^4 cells/well were incubated in the absence or presence of compounds for 4 days. HIV-1 p24 antigen expression in the culture media was measured by using a ELISA kit (Abbott). Alternatively, U1 cells were plated at a relatively low density of 2×10^3 cell/well plus or minus TNF at 20 pg/ml and plus or minus compounds. The expression of HIV-1 p24 antigen in culture media was measured by ELISA four days later.
(§2) Stable cell lines 293tar, 293tat and 293tat2 were generated by transfections using conditions described in (Tate et al., FASEB J. 4:227-231, 1990) with the plasmid pHIV.AP alone or along with either pHIV.tat or pSV2tat72, respectively. The assay of HIV-1 p24 antigen expression in the chronically HIV-1-infected promonocytic line U1 after 4 days and in acutely infected peripheral blood lymphocytes (PBL) after 7 days were described (Peterson et al., J. Clin. Invest. 89:574-580, 1992, and Brighty et al., Proc Natl. Acad. Sci. USA 88:7802-7805, 1991).
(§3) This example illustrates that CT2576 inhibited both constitutive and cytokine-induced HIV expression in a chronically-infected U1 cell line. A chronically HIV-1 infected human promonocyte cell line, U1 (Poli et al., J. Exp. Med. 172:151-158, 1990), was used as a model to see if the inhibitory effect of CT2576 on HIV-LTR driven reporter gene expression could be extended to block HIV replication per se in infected cells. TNF-α and IL-6 have been reported to upregulate the expression of HIV-1 in U1 cells (Poli et al., Proc Natl. Acad. Sci. USA 91:108-112, 1994). U1 cells were plated onto 24-well microtiter plates to study the dose-response effect of CT2576 on the constitutive (10^4 cells/well), TNF-α or IL-6 mediated (2×10^3 cells/well) expression of HIV-1. CT2576 was capable of inhibiting the constitutive, the TNF-α mediated, as well as the IL-6 mediated expression of HIV in U1 cells with an IC50 value of less than 1 μM (FIG. 17).

The subject of a further data set is U1 cells. Description: Cytotoxicity in U1 cells. In kind it is cell-based, human. An excerpt: We studied the effect of CT-2576 on HIV expression in a chronically HIV-1 infected promonocytic U1 cell line (Folks et al., Science 238:800-802, 1987). […] TNF-α and other cytokines can induce HIV expression in U1 cells. U1 cells also express HIV constitutively when grown to a relatively high density. […] An inhibitor of viral reverse transcriptase is expected to only protect new cells from becoming infected but not to affect viral production from cells already infected with HIV. […] While TNF-α induces HIV expression through activation of NFκB, IL-6 and IL-1 also stimulates HIV expression through other pathways independent of NFκB activation in U1 cells.

For another data set, the system named is 293-EBNA cells. Description: Viability of 293-EBNA cells, Alamar Blue. In kind it is cell-based, human. In short, it runs like this:
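Viability read with Alamar Blue, a vital dye reduced by mitochondrial dehydrogenases to a soluble product. Signal quantified as the absorbance difference between A570 and A600.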
(In general: The colour change of resazurin is a common sign of viable cells or microbes.)

Data set [2] relates to HIV-1 in U1 cells (TNF-α mediated expression). Description: TNF-α-mediated HIV-1 p24 antigen expression in chronically infected U1 cells. It is filed as cell-based, HIV-1; human cells. Conditions: for suppression of TNFα-mediated HIV-1 expression (p24): in words. The protocol:
as §1, §2, §3

In data set [3] the test system is CMV promoter in 293-EBNA cells. The data set can be described thus: AP reporter gene expression from CMV promoter, 293-EBNA cells stably transfected with pCMV.AP. It is filed as cell-based, human cytomegalovirus; human cells. In short, it runs like this:
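293-EBNA cells carrying episomal pCMV.AP, expressing secreted placental alkaline phosphatase from the CMV enhancer/promoter, treated with various compound concentrations. Reporter expression read as change in A405 of conditioned medium with substrate such as ortho-nitrophenol phosphate.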
For orientation: A reporter such as luciferase makes a cellular process visible.

SMILES strings stand for the structures. “Also recorded” adds a separate entry of the source. Read-outs that look alike come from different tables or passages of the source. Bounds are passed on as bounds.

With `CCCCCCCCNCC(O)CCCCCCCCCn1c(=O)c2c(ncn2C)n(C)c1=O` (centres unmarked) [CT2576, 1-(11-octylamino-10-hydroxyundecyl)-3,7-dimethylxanthine], the IC50 is ~1 µM in data set [1] (Human immunodeficiency virus 1, 96 h, read-out: IC50, constitutive HIV expression, U1 cells, 4 days); < 1 µM in data set [1] (read-out: IC50, constitutive HIV expression, U1 cells, 4 days); ~1 µM in data set [2] (Human immunodeficiency virus 1, 96 h, read-out: IC50, TNF-α mediated HIV expression, U1 cells, 4 days); < 1 µM in data set [2] (U1 cells, 4 days, read-out: IC50, TNF-α mediated HIV expression). The “suppression of constitutive HIV-1 expression (p24)” value in data set [1] is reported as “the most effective; also recorded: inhibited; also recorded: suppressed constitutive HIV-1 expression”. The “cytotoxicity in U1 cells, trypan-blue dye exclusion” value in the data set with U1 cells (trypan-blue dye exclusion assay) is reported as “no cytotoxicity”. Moreover, the “toxic concentration (not toxic at concentrations up to), 293-EBNA cells” value with 293-EBNA cells is > 35 µM. Besides, the “suppression of TNFα-mediated HIV-1 expression (p24)” value in data set [2] (U1 cells) was “suppressed HIV-1 expression; also recorded: the most effective; also recorded: inhibited”.

`CCCCCCCCNCC(O)CCCCCCCCCN1C(=O)CCN(C)C1=O` (centres unmarked) [CT1829, 3-(11-octylamino-10-hydroxyundecyl)-1-methyldihydrouracil]: in data set [1], the “suppression of constitutive HIV-1 expression (p24)” value is “suppressed constitutive HIV-1 expression”. The “cytotoxicity in U1 cells at 25 μM” value with U1 cells (25 μM, FIG. 12 bottom panel, TNFα) is recorded as “some cytotoxicity”. The “cytotoxic effect on 293-EBNA cells (Alamar Blue)” value in the data set on 293-EBNA cells is on record as “no significant cytotoxic effect”. The “suppression of TNFα-mediated HIV-1 expression (p24)” value in data set [2] (U1 cells) was “suppressed HIV-1 expression”. Besides, the IC50 in data set [3] (Homo sapiens, 293-EBNA, FIG. 8, read-out: concentration inhibiting AP activity by 50% (CMV assay)) was 2 to 6 µM. The “inhibition of AP expression (CMV promoter)” value in data set [3] (in words) is “inhibit CMV promoter driven expression”.
